Laboratory results from US4879384A, “Preparation of thiocycloalkno [3,2-b] pyridines” (Ortho Pharmaceutical Corporation, priority 1988, dated 1989).
Read-outs that look alike come from different tables or passages of the source. Values belong to the molecule of their own block, whether it stands above or below them.

Assays:
[1] = molecular target: T1, calcium channels (Oryctolagus cuniculus, UniProt P15381); experiment: Inhibition of nitrendipine binding to calcium channels; type: New Zealand white rabbit (heart membranes); details: for IC50: Table II
T1 construct: from tissue; host or cells: rabbit heart membranes (female New Zealand white rabbits; 42,000 xg pellet)
Procedure: (1) Inhibition of nitrendipine binding to calcium channels.
The assay for inhibition of nitrendipine binding follows the following procedure:
Female, New Zealand white rabbits (1-2 kg) are sacrificed by cervical dislocation, and the heart is immediately removed, cleaned, and chopped into small pieces. The tissue is homogenized in 5X volume of 0.05M Hepes buffer, pH 7.4. The homogenate is centrifuged at 4000 xg for 10 minutes; the supernatant is recentrifuged at 42,000 xg for 90 minutes. The resulting membrane pellet is resuspended (0.7 ml/g weight) in 0.05M Hepes, pH 7.4 and stored at -70° C. until used. Each tube of the binding assay contains ^3 H-nitrendipine (0.05-0.50nM), buffer, membranes (0.10 ml), and test compound in a total volume of 1.0 ml. After 90 minutes at 4° C., the bound nitrendipine is separated from the unbound by filtration on Whatman GF/C fibers. After rinsing, the filters are dried and counted in a liquid scintillation counter.
Non-specific binding of ^3 H-nitrendipine (that amount bound in the presence of excess unlabelled nitrendipine) is subtracted from the total bound to obtain specifically bound radiolabeled nitrendipine. The amount of specifically bound nitrendipine in the presence of a test compound is compared to that amount bound in the absence of a compound. A percent displacement (or inhibition) can then be obtained.

[2] = system: Trachea Muscle; experiment: Inhibition of calcium dependent smooth muscle contraction (trachea); type: cell-based, dog; details: Table II; concentration 0.3 μM
Procedure: The test for inhibition of calcium dependent smooth muscle contraction is determined according to the following procedure:
Trachea from dogs sacrificed by excess KCl injection are stored overnight at 4° C. in oxygenated Krebs-Henseleit buffer. Tracheal rings, one cartilage segment wide (5-10 mm), are cut starting from the bronchial end. After cutting the cartilage, the trachealis muscle tissue is suspended in oxygenated Krebs-Henseleit buffer at 37° C. in a 25 ml tissue bath. After a 60 minutes equilibration period, the tissues are challenged with 10 uM carbachol. After 5 minutes the tissues are rinsed and allowed to rest 50 minutes. The tissues are then challenged with 50 mM KCl and, after 30 minutes, the contractions are quantitated. The tissues are then rinsed and reequilibrated for 50 minutes. Test compounds are then added for 10 minutes, and the tissue is rechallenged with 50 mMKcl. After 30 minutes, the contraction is recorded and used to determine the % inhibition of control.
The percent inhibition of smooth muscle contracting is calculated from response data before and after drug treatment. [formula] A rating is assigned to the compound depending upon the percent inhibition obtained.

T1 sequence (P15381 whole entry, other chains not shown): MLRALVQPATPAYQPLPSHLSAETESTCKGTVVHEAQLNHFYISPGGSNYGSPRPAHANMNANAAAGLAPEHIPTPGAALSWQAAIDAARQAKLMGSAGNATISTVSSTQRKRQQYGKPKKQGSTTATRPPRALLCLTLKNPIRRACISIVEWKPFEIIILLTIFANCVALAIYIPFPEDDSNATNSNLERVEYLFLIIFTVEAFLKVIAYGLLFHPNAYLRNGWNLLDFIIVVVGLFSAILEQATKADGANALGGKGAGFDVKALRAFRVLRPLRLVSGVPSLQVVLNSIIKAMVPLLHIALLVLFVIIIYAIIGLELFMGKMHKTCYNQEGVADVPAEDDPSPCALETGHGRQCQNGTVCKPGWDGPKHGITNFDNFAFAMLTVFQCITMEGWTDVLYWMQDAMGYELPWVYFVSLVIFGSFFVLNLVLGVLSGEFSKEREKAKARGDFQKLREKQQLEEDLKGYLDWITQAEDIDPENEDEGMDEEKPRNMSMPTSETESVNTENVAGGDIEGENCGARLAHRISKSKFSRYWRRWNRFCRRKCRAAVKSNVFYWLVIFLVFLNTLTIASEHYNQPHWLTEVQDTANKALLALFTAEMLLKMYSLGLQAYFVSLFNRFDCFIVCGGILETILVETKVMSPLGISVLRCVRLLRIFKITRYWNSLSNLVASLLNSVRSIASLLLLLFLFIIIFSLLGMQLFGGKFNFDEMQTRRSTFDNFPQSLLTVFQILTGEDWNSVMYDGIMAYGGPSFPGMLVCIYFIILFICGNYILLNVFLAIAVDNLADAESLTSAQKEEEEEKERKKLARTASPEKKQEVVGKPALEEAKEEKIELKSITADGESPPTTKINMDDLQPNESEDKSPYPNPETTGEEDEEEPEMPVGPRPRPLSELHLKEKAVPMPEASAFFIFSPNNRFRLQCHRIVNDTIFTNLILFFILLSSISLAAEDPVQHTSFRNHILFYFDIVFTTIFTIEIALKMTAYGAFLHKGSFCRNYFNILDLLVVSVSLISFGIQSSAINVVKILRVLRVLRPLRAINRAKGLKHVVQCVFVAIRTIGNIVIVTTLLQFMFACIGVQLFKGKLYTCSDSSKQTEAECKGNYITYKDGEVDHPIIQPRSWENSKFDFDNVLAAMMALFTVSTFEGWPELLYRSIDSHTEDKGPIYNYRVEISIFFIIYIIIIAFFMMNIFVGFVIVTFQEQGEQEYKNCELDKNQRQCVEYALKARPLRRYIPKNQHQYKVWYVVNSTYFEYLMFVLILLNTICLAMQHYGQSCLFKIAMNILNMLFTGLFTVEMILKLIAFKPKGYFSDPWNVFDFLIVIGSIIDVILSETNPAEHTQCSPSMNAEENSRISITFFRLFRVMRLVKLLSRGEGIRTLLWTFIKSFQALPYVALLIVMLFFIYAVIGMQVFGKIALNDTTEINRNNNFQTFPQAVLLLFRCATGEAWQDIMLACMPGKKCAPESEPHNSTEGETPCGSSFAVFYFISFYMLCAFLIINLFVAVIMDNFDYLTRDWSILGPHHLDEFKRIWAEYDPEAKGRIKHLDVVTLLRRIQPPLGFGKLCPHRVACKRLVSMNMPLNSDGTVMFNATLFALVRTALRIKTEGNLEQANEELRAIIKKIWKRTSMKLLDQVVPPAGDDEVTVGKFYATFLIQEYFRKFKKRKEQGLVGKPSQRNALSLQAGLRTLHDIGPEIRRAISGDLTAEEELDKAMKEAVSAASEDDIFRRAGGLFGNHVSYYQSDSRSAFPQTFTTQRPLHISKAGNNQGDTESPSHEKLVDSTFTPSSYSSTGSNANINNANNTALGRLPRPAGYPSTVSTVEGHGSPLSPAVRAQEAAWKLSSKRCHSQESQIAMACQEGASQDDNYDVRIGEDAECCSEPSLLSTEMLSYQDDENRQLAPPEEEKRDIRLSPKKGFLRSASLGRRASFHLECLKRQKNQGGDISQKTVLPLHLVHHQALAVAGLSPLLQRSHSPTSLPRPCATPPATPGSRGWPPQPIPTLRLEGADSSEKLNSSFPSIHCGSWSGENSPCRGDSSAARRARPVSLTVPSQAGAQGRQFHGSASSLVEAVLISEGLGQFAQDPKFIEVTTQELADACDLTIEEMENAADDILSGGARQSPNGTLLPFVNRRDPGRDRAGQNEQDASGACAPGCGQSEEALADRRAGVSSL
T1 sequence (P13806 27-960 partner limits assumed, other chains not shown): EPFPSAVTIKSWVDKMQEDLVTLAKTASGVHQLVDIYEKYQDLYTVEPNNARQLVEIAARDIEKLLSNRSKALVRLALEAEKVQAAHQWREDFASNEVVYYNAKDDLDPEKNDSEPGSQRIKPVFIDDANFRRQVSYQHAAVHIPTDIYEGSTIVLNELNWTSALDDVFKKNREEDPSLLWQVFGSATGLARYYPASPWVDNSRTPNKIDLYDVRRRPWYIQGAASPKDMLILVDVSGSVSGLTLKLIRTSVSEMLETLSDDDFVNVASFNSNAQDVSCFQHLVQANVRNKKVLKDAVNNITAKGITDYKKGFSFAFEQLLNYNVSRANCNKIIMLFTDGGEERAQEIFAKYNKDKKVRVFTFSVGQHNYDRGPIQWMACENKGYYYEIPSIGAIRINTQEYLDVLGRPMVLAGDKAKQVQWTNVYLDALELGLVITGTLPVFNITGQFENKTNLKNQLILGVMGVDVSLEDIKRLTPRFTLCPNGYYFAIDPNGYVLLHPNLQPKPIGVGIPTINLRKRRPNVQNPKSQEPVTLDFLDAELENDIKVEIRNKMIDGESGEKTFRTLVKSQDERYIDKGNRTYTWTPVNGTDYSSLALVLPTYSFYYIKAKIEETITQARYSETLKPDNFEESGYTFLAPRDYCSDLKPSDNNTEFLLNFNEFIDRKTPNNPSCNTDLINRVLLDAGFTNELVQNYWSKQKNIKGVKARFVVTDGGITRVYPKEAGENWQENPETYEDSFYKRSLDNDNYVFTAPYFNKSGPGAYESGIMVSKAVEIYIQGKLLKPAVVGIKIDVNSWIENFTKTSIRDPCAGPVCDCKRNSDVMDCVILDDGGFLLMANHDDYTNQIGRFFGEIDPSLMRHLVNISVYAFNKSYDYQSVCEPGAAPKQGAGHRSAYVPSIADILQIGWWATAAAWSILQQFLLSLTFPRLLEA
T1 sequence (P13806 961-1106 partner limits assumed, other chains not shown): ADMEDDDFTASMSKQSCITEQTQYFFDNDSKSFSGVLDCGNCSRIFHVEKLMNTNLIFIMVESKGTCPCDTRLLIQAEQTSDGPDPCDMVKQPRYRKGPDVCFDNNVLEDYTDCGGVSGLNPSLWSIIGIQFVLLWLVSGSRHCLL

- IC50 ([1]; first part, read-out: Inhibition of Nitrendipine binding IC50): 0.108 µM
Structure (SMILES): CCOC(=O)C1=C(C)NC2=C(C1c1cccnc1SC)S(=O)(=O)CCCCC2 (stereo not shown) [drawing 8 CH2 CH3]
- Inhibition of Trachea Muscle Contraction, % Inhibition [2]: 79%

- IC50 ([1]; second part, read-out: Inhibition Nitrendipine binding IC^50): 0.11 µM
Structure (SMILES): CC1=C(C(=O)OCCN(C)Cc2ccccc2)C(c2ccccc2[N+](=O)[O-])C2=C(CCCCCS2(=O)=O)N1 (stereo not shown) [5 2-NO2 C6 H4 CH2 CH2 NCH3 CH2 C6 H5]

- Inhibition of Nitrendipine binding (percent at stated concentration) ([1]; Table I, @ 8.0): 56%
Structure (SMILES): COC(=O)C1=C(C)NC2(O)CCS(=O)(=O)C2C1c1ccccc1[N+](=O)[O-] (stereo not shown) [Methyl 2,3,3a,4,7,7a-hexahydro-3a-hydroxy-5-methyl-7-(2-nitrophenyl)-1,1-dioxo-thieno[3,2-b]pyridine-6-carboxylate]
